Patent US4898867A, “Thienopyrimidine derivaties as aldose-reductase inhibitors” (Taiho Pharmaceutical Company, Limited, priority 1987, dated 1990)
Where a name gives a salt, the structure may show the parent alone.

What follows are compounds tested against T1, aldose-reductase (AR) (Rattus norvegicus, UniProt P07943) (assay: Aldose-reductase inhibitory activity (decrease in absorbance of NADPH at 340 nm, glyceraldehyde substrate)). Settings: rat lens AR supernatant, 0.1M phosphate buffer pH 6.2, 30° C.
T1 construct: The supernatant obtained was used as AR; from tissue; host or cells: lenses of male Wistar rats (10000 rpm supernatant of homogenate)
Format: biochemical, Wister male rats (lenses)
Experimental: The aldose-reductase (AR) activity was evaluated by determining spectrophotometrically the decrease in absorbance of NADPH at 340 nm due to the reduction of the substrate, i.e., glyceraldehyde according to the method described in Biochemical Pharmacology 25, pp 2505-2513 (1976).
The lenses of Wister male rats was homogenized with 0.5 ml of 0.1M phosphate buffer (pH 6.2) per lens by a glass homogenizer and the homogenate was centrifuged at 10000 rpm for 10 minutes. The supernatant obtained was used as AR.
The determination of the AR activity was conducted as follows. A 700 μl quantity of 0.1M phosphate buffer (pH 6.2), 100 μl of 2.21 mM NADPH, 100 μl of AR and 5 μl of DMSO containing each of test compounds in varying concentrations were placed in a cell for test sample, and 800 μl of 0.1M phosphate buffer (pH 6.2), 100 μl of 2.21 mM NADPH, 100 μl of AR and 5 μl of DMSO were placed in a cell for control. Then the solutions in the cells were thoroughly mixed together and the mixtures were maintained at 30° C. Then 100 μl of 100 mM glyceraldehyde maintained at 30° C. was added to a cell for test sample and quickly blended to initiate the reaction. The AR activity was determined from the rate of change of absorbance per minute in the linear part of variations of absorbance during a period of from 1 minute to three minutes after the start of the reaction, and a dose-response curve was drawn.

Structure (SMILES)	IC50
Cc1sc2c(c1C)c(=O)n(Cc1ccc(Cl)cc1)c(=O)n2CC(=O)O [Compound I-1, 1-carboxymethyl-3-(4-chlorobenzyl)-5,6-dimethylthieno[2,3-d]pyrimidin-2,4(1H, 3H)-dione]	75 nM
Cc1sc2c(c1C)c(=O)n(Cc1ccc(Br)cc1F)c(=O)n2CC(=O)O [Compound I-14]	21 nM
O=C(O)Cn1c(=O)n(Cc2ccc(Br)cc2F)c(=O)c2cc(-c3ccccc3)sc21 [Compound I-13]	34 nM
Cc1c(Cl)sc2c1c(=O)n(Cc1ccc(Cl)c(Cl)c1)c(=O)n2CC(=O)O [Compound I-11]	25 nM
O=C(O)Cn1c(=O)n(Cc2ccc(Cl)cc2Cl)c(=O)c2c3c(sc21)CCCC3 [Compound I-8]	42 nM
CC(C)c1cc2c(=O)n(Cc3ccc(Br)cc3F)c(=O)n(CC(=O)O)c2s1 [Compound I-17]	22 nM
O=C(O)Cn1c(=O)n(Cc2ccc(Br)cc2F)c(=O)c2ccsc21 [Compound I-19]	20 nM
O=C(O)Cn1c(=O)n(Cc2ccc(Br)cc2F)c(=O)c2cc(Cl)sc21 [I-24 (Lysine salt)]	25 nM
O=C(O)Cn1c(=O)n(Cc2ccc(Br)cc2F)c(=O)c2cc(C3CCCC3)sc21 [Compound I-16]	30 nM
Cc1c(Br)sc2c1c(=O)n(Cc1ccc(Cl)c(Cl)c1)c(=O)n2CC(=O)O [Compound I-10]	26 nM
Cc1csc2c1c(=O)n(Cc1ccc(Cl)c(Cl)c1)c(=O)n2CC(=O)O [Compound I-5]	30 nM
Cc1csc2c1c(=O)n(Cc1ccc(Br)cc1F)c(=O)n2CC(=O)O [Compound I-20, 1-carboxymethyl-3-(4-bromo-2-fluorobenzyl)-5-methylthieno[2,3-d]pyrimidin-2,4(1H, 3H)-dione]	24 nM
Cc1sc2c(c1C)c(=O)n(Cc1ccc(Cl)cc1Cl)c(=O)n2CC(=O)O [Compound I-2]	20 nM
CC(C)c1cc2c(=O)n(Cc3ccc(Cl)c(Cl)c3)c(=O)n(CC(=O)O)c2s1 [Compound I-3]	26 nM
CC(C)c1cc2c(=O)n(Cc3ccc(Cl)cc3Cl)c(=O)n(CC(=O)O)c2s1 [Compound I-4]	17 nM
O=C(O)Cn1c(=O)n(Cc2ccc(Br)cc2F)c(=O)c2c3c(sc21)CCCC3 [Compound I-15]	23 nM
